Measured values from ChEMBL document CHEMBL1201862, “PubChem BioAssay data set” (2004).
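Cells were grown in 96-well plates and exposed to each compound for 48 hours at five concentrations; endpoints were interpolated linearly between bracketing concentrations, or set to the highest concentration if not reached. The concentration for 50% growth inhibition is given as GI50.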 Activity calls are given as the source filed them. Rule as the data show it: active = GI50 up to about 1.1 µM and inactive = higher. Where a SMILES comes first, the peptide text is derived from it. The star is where a group is joined. Cbz = O=C(OCc1ccccc1)*

Assays:
Test in all cases: NCI-60 cell line screen, 48 h
EKVX = test system: EKVX
NCI-H460 = test system: NCI-H460
SNB-75 = test system: SNB-75
U-251 = test system: U-251
IGROV-1 = test system: IGROV-1
HOP-92 = test system: HOP-92
MDA-MB-231 = test system: MDA-MB-231
SF-295 = test system: SF-295
TK-10 = test system: TK-10
HCC 2998 = test system: HCC 2998
A549 = test system: A549
RPMI-8226 = test system: RPMI-8226
M14 = test system: M14
RXF 393 = test system: RXF 393
BT-549 = test system: BT-549
SR = test system: SR
OVCAR-4 = test system: OVCAR-4
786-0 = test system: 786-0
Hs-578T = test system: Hs-578T
SNB-19 = test system: SNB-19

Measured: GI50

O=C(NCCCN(CCCCN(CCCNC(=O)C(F)(F)F)Cc1ccc2ccccc2c1)Cc1ccc2ccccc2c1)C(F)(F)F
inactive: EKVX > 100 µM | NCI-H460 2.21 µM | SNB-75 > 100 µM | U-251 3.91 µM | IGROV-1 7.87 µM | HOP-92 > 100 µM | MDA-MB-231 > 100 µM | SF-295 > 28.6 µM | TK-10 > 100 µM | HCC 2998 1.53 µM | A549 > 100 µM | RPMI-8226 2.81 µM | M14 1.99 µM | RXF 393 3.77 µM | BT-549 6.22 µM | SR 2.7 µM | OVCAR-4 2.62 µM | 786-0 > 100 µM

C/C=C1\CC(C(=O)OCC)CCCCCCCCCCC1=O (stereo not given)
inactive: EKVX 41.5 µM | NCI-H460 54.1 µM | SNB-75 27.7 µM | U-251 55.2 µM | IGROV-1 31.8 µM | Hs-578T 28.9 µM | SNB-19 69.2 µM | MDA-MB-231 58.6 µM | SF-295 57.4 µM | TK-10 > 100 µM | A549 51.3 µM | M14 > 100 µM | RXF 393 55.8 µM | BT-549 82.8 µM | OVCAR-4 55.5 µM | 786-0 70.1 µM

Cc1ccc(O)c(-c2cscn2)c1
inactive: EKVX 32.2 µM | NCI-H460 28.5 µM | IGROV-1 55.7 µM | Hs-578T 32.9 µM | SNB-19 25.1 µM | HOP-92 43.7 µM | SF-295 40 µM | TK-10 44.8 µM | HCC 2998 24.7 µM | A549 29.7 µM | RPMI-8226 36 µM | M14 54.2 µM | BT-549 74.5 µM | SR 40.4 µM | OVCAR-4 54 µM | 786-0 33.2 µM

COc1ccccc1CNC(=O)[C@H](Cc1ccc(O)cn1)NC(C)=O
inactive: EKVX > 100 µM | NCI-H460 > 100 µM | U-251 > 100 µM | IGROV-1 > 100 µM | Hs-578T > 100 µM | SNB-19 > 100 µM | HOP-92 57.7 µM | SF-295 > 100 µM | TK-10 > 100 µM | HCC 2998 > 100 µM | A549 > 100 µM | RPMI-8226 > 100 µM | M14 > 100 µM | RXF 393 > 100 µM | BT-549 > 100 µM | SR > 100 µM | OVCAR-4 > 100 µM | 786-0 > 100 µM

N#CC(c1ccccc1)N(CCOCCOCCN(C(=O)c1cccc2ccccc12)C(C#N)c1ccccc1)C(=O)c1cccc2ccccc12 (stereo not given)
inactive: EKVX > 100 µM | NCI-H460 87.1 µM | SNB-75 > 100 µM | U-251 > 100 µM | IGROV-1 > 100 µM | Hs-578T > 100 µM | SNB-19 > 100 µM | MDA-MB-231 > 100 µM | SF-295 > 100 µM | TK-10 > 100 µM | HCC 2998 > 100 µM | A549 17.5 µM | M14 > 100 µM | RXF 393 > 100 µM | BT-549 > 100 µM | OVCAR-4 > 100 µM | 786-0 > 100 µM

O=C(NCP(=O)(O)O)c1cccnc1 [(NICOTINAMIDOMETHYL)PHOSPHONIC ACID]
inactive: EKVX > 100 µM | NCI-H460 > 100 µM | SNB-75 92.3 µM | U-251 > 100 µM | IGROV-1 > 100 µM | SNB-19 > 100 µM | HOP-92 > 100 µM | MDA-MB-231 > 100 µM | SF-295 > 100 µM | TK-10 > 100 µM | A549 > 100 µM | RPMI-8226 > 100 µM | M14 > 100 µM | RXF 393 > 100 µM | BT-549 > 100 µM | SR > 100 µM | OVCAR-4 > 100 µM | 786-0 > 100 µM

N#C[C@H]1C(=O)C(c2nc3ccccc3[nH]2)S[C@H]1c1ccccc1 (stereo not given in full)
inactive: EKVX 28.9 µM | NCI-H460 35.1 µM | U-251 22.6 µM | IGROV-1 26.9 µM | Hs-578T 45.2 µM | SNB-19 45.4 µM | HOP-92 25.5 µM | SF-295 25.2 µM | TK-10 95.9 µM | HCC 2998 50 µM | A549 45.4 µM | RPMI-8226 25.5 µM | M14 33.3 µM | RXF 393 19.1 µM | BT-549 26.5 µM | SR 28.8 µM | OVCAR-4 34.2 µM | 786-0 19.1 µM

CCOC(=O)CCC(NC(=O)C(CC(=O)OC)NC(=O)OCc1ccccc1)C(=O)NC(CC(=O)OC)C(=O)NC(CCC(=O)OCC)C(=O)NC(CC(=O)OC)C(=O)NC(CCC(=O)OCC)C(=O)NC(CC(=O)OCC)C(=O)OCC (stereo not given) (Cbz-D(OMe)E(OEt)D(OMe)E(OEt)D(OMe)E(OEt)D(OEt)-OEt; configuration not given here)
inactive: NCI-H460 > 100 µM | U-251 > 100 µM | IGROV-1 > 100 µM | SNB-19 > 100 µM | MDA-MB-231 > 100 µM | TK-10 > 100 µM | HCC 2998 > 100 µM | A549 > 100 µM | RPMI-8226 > 100 µM | BT-549 > 100 µM | SR > 100 µM | OVCAR-4 > 100 µM | 786-0 > 100 µM

CSc1nc(C)c(CCCl)c(Cl)n1
inactive: EKVX > 100 µM | NCI-H460 > 100 µM | SNB-75 > 100 µM | U-251 > 100 µM | IGROV-1 > 100 µM | Hs-578T > 100 µM | SNB-19 > 100 µM | MDA-MB-231 > 100 µM | SF-295 > 100 µM | TK-10 > 100 µM | HCC 2998 > 100 µM | A549 > 100 µM | M14 32.4 µM | RXF 393 > 100 µM | BT-549 87.7 µM | OVCAR-4 > 100 µM | 786-0 > 100 µM

O=C1CC(c2ccc(Cl)cc2)C2(C(=O)NC(=O)NC2=O)C(c2ccc(Cl)cc2)C1 (stereo not given)
inactive: EKVX 47.4 µM | NCI-H460 28.6 µM | SNB-75 49.5 µM | U-251 27.5 µM | IGROV-1 18 µM | SNB-19 32.3 µM | HOP-92 14.7 µM | MDA-MB-231 13.4 µM | SF-295 28.8 µM | TK-10 54.8 µM | HCC 2998 27.9 µM | RPMI-8226 10.3 µM | M14 27.7 µM | RXF 393 15 µM | BT-549 30.7 µM | OVCAR-4 38.5 µM | 786-0 25.1 µM

COc1ccc(-c2nc(O)c3ccccc3n2)c(OC)c1
inactive: EKVX > 100 µM | NCI-H460 > 100 µM | SNB-75 > 100 µM | U-251 > 100 µM | IGROV-1 > 100 µM | Hs-578T > 100 µM | SNB-19 > 100 µM | MDA-MB-231 > 100 µM | SF-295 > 100 µM | HCC 2998 > 100 µM | A549 > 100 µM | RPMI-8226 29.1 µM | M14 > 100 µM | RXF 393 > 100 µM | BT-549 > 100 µM | OVCAR-4 > 100 µM | 786-0 > 100 µM
